In patent US20250002969A1, “DISCRIMINATION OF ANTIBIOTIC RESISTANT AND SENSITIVE SAMPLES” (priority 2021, published 2025):

Legend:
[1] = tested on: S. aureus clinical isolates; experiment: Photoacoustic flow cytometry (PAFC) detections of clinical isolates incubated with oxacillin; format: cell-based, Staphylococcus aureus; conditions: for Treated Detections: oxacillin 1 μmg/ml, 2 hours
Experimental: In a representative study, total of thirteen samples were tested for the mecA gene using PCR, thus determining their methicillin resistance before photoacoustic testing. Streaks of each S. aureus strain were grown on mannitol salt agar plates. Single colonies from each streak plate were used to regrow strains in mannitol salt broth for 2 hours in a shaking water bath at 36.5 C. That period ensured cells were growing and entering exponential growth phase. Oxacillin was added at a final concentration of 1 μmg/ml to half of each culture and grown for an additional 2 hours. Before processing through PAFC system, 100 μl from each culture was removed and used for growth analysis in an HI plate reader (available from Biotek of Winooski, Vermont). Growth curves were made for each culture by taking the optical density of each treated and untreated culture every minute over a 16-hour period. As described above, it was determined that two hours of antibiotic treatment was sufficient to determine differential growth rates from prior experimentation. Prior to performing photoacoustic testing, treated and untreated samples were incubated side-by-side for two hours. Photoacoustic testing of treated and untreated samples for each isolate were alternated, so that both samples were tested within twenty minutes to allow for similar growth times. Thus, total bacteria number could be compared properly.
To interpret the photoacoustic data provided by the flow cytometer, k-means clustering was used to guide the differentiation between methicillin resistant and susceptible samples. […] K-means, like other clustering methods, takes data points in a space of one or more dimensions and determines natural groupings of those points by proximity. Given a number of clusters, k, the algorithm separates all points into that number of groups. In a representative study, there was an interest in identifying only resistant and susceptible groups. Thus, k=2 was chosen.
The ratio of treated detection numbers over untreated numbers was determined, resulting in 13 numbers which were approximately in the range of 0 to 1. Lower numbers indicate that oxacillin was effective in decreasing the S. aureus population. However, there was no ad hoc threshold for determining antibiotic resistance. K-means with two clusters was applied to the data set using the MATLAB programming language (available from Math Works of Natick, Massachusetts). The MATLAB function, kmeans, uses Lloyd's algorithm. For simplicity, Euclidean distance was used for measuring and establishing iterative clusters.
Because the sample size was relatively small and the distribution was not obviously Gaussian, a nonparametric test was performed to compare the means of the bacterial counts before and after treatment with oxacillin. Using a Wilcoxon matched pairs signed rank test, a p-value of 0.0007 was calculated.
Photoacoustic Flow Cytometry. A 1000 μm optical fiber with numerical aperture of 0.39 (Thorlabs, Newton, New Jersey) was used to deliver laser light at 532 nm with a 5 ns pulse duration from a Nd:YAG laser (Litron Nano, Boseman, Montana). Laser beam energy was maintained and measured between 1.9 and 2.1/mJ for all PAFC experiments. The optical fiber was placed 5 mm away from a quartz tube (Quartz 10 QZ, Charles Supper, Natick, Massachusetts) with 10 μm thick walls. Samples were pumped through the quartz tube inside a 3D printed flow chamber. The laser beam was assumed Gaussian in shape and fluence was calculated to be 0.014 mJ/cm^2 and detection volume was determined to be 0.04 μL.

[2] = tested on: MRSA; conditions: cited from earlier work
[3] = tested on: VRSA; conditions: cited from earlier work
[4] = tested on: Staph. aureus clinical isolates; experiment: PAFC cell count of clinical isolates in presence of daptomycin, dyed SP1 phage label; format: cell-based
Experimental: All strains were tested in the presence and absence of daptomycin. In a number of studies hereof, cultures were diluted into fresh media and regrown for 2 hours in the presence and absence of […] of daptomycin. Each sample was then incubated at room temperature for 10 minutes with multiple dyed phage per bacterial cell. Incubated samples were then processed through PAFC system 100 and number of detected cells recorded. Isolates were tested in triplicated for both the plate reader and PAFC system.
(§1) Sample preparation. Clinical isolates of Staph. aureus were obtained from the Urisch laboratory at the UPMC Department of Othopaedic Surgery. Isolates were de-identified according to IRB protocol and were stored in 50% glycerol solution at −80° C. Isolates were streaked for single colonies on mannitol salt agar (MSA) plates and cultures were grown in mannitol salt broth, shaking at 36.5° C. Overnight cultures were then diluted into fresh media and regrown for 2 hours to ensure that bacteria were entering exponential growth phase. Exponentially growing cultures were mixed with media or daptomycin in a 1:1 ratio. Daptomycin was added to 0.5 ml of culture to a final concentration of 0.25 μg/ml. Identical cultures were used in all experiments using PAFC and BioTek HI plate reader. For photoacoustic testing, bacteriophage SP1 was added to a concentration of 1000 phage per bacterial cell. Growth curves were performed for 16 hours with measurements taken once every minute.
Photoacoustic Flow Cytometry. […] Laser beam energy was maintained and measured between 1.9 and 2.1/mJ for all PAFC experiments. […] The laser beam was assumed Gaussian in shape and fluence was calculated to be 0.014 mJ/cm^2 and detection volume was determined to be 0.04 μL.
All strains were tested in the presence and absence of daptomycin. […] Incubated samples were then processed through the PAFC system and number of detected cells recorded. Isolates were tested in triplicate for both the plate reader and PAFC system.

[5] = tested on: Staph. aureus clinical isolates; experiment: Growth curves (optical density) of clinical isolates in presence of daptomycin; format: cell-based
Experimental: Growth curves of multiple clinical isolates of the representative bacteria S. aureus as illustrated in FIGS. 4A through 4D were determined using a BioTek Synergy HI plate reader (available from BioTek Instruments (of Agilent Technologies), Winooski, Vermont). S. aureus isolates growth rates were tested in the presence and absence of the representative antibiotic daptomycin. Differential growth rates were identifiable after two hours of the sixteen-hour growth curve. Two-hour differentiation was confirmed by Newton-Raphson root finding method.
as §1
Treated and control cultures were placed in a round bottom 96 well culture plate (Falcon microtest 96 well plate 35077, ThermoFisher, Waltham, Massachusetts) and were placed into the BioTek HI plate reader. Optical density (OD) measurements were taken every minute at 600 nm wavelength. Between measurements, the plate was shaken at 100 rpm and maintained at 36.5+C allowing for bacterial growth. The two-hour time point was determined to be sufficient to differentiate the growth rates. Additionally, multiple replicates of each bacterial strain were grown at 36.5° C. in the BioTek HI plate reader and 100 μL was removed and plated on MSA plates every 10 minutes. Growth curves were made directly from these titers for each strain to give a quantifiable number of bacterial cells for each OD.

Cc1onc(-c2ccccc2)c1C(=O)N[C@@H]1C(=O)N2[C@@H]1SC(C)(C)[C@@H]2C(=O)O [oxacillin]
Treated Detections ([1]; isolate B1899 (mecA Yes)): 404
Treated Detections ([1]; isolate K3237 (mecA No)): 44
Treated Detections ([1]; isolate K3251 (mecA No)): 7
Treated Detections ([1]; isolate K3255 (mecA No)): 53
Treated Detections ([1]; isolate K3261 (mecA Yes)): 135
Treated Detections ([1]; isolate K3262 (mecA No)): 10
Treated Detections ([1]; isolate K3266 (mecA No)): 18
Treated Detections ([1]; isolate K3268 (mecA Yes)): 110
Treated Detections ([1]; isolate K3270 (mecA Yes)): 134
Treated Detections ([1]; isolate K3279 (mecA Yes)): 175
Treated Detections ([1]; isolate K3280 (mecA Yes)): 179
Treated Detections ([1]; isolate K3282 (mecA Yes)): 689
Treated Detections ([1]; isolate K3287 (mecA No)): 2
mean ratio of treated to untreated ([1]; second subgroup, markedly different growth): 0.10
mean ratio of treated to untreated ([1]; subgroup with similar growth rates (isolates with mecA gene)): 0.87

CCCCCCCCCC(=O)N[C@@H](Cc1c[nH]c2ccccc12)C(=O)N[C@H](CC(N)=O)C(=O)N[C@@H](CC(=O)O)C(=O)N[C@@H]1C(=O)NCC(=O)N[C@@H](CCCN)C(=O)N[C@@H](CC(=O)O)C(=O)N[C@H](C)C(=O)N[C@@H](CC(=O)O)C(=O)NCC(=O)N[C@H](CO)C(=O)N[C@@H]([C@H](C)CC(=O)O)C(=O)N[C@@H](CC(=O)c2ccccc2N)C(=O)O[C@@H]1C [daptomycin]
MIC [2]: 0.25 to 1 µg/mL
MIC [3]: > 4 µg/mL
cells detected by PAFC, treated vs untreated ([4]; heterogeneous resistant strains): intermediary number of cells detected
cells detected by PAFC, treated vs untreated ([4]; homogeneous resistant strains): identical or nearly identical numbers of cells
cell count via photoacoustic detection ([4]; susceptible clinical isolate, FIG. 4A, two-hour timepoint): zero detection
growth (optical density) treated vs untreated ([5]; heterogeneous strain A, FIG. 4C): delay of exponential growth
growth (optical density) treated vs untreated ([5]; heterogeneous strain B, FIG. 4D): no delay in initial growth is observed but severe retardation of growth starting at 1.5 hours
growth (optical density) treated vs untreated ([5]; resistant clinical isolate, FIG. 4B, 2 h and 16 h): no delay or inhibition of growth
growth (optical density) treated vs untreated ([5]; susceptible clinical isolate, FIG. 4A, 2 h and 16 h): complete inhibition of growth
